Literature values as cited in US20100197018A1, “USE OF SUBSTRATES AS PHARMACOLOGICAL CHAPERONES” (AMICUS THERAPEUTICS, INC., priority 2007, published 2010).
Like-named read-outs stand apart in the source and are kept apart here. Marks after values point to notes of the source that are not given here.

Key:
heparan-N-sulfatase = target: T1, heparan-N-sulfatase (Homo sapiens, UniProt P51688); details: for Relative catalytic efficiency*: GlcNS = 1.00; for pH optimum of the enzyme for the substrate: purified enzyme
T1 sequence (P51688 21-502): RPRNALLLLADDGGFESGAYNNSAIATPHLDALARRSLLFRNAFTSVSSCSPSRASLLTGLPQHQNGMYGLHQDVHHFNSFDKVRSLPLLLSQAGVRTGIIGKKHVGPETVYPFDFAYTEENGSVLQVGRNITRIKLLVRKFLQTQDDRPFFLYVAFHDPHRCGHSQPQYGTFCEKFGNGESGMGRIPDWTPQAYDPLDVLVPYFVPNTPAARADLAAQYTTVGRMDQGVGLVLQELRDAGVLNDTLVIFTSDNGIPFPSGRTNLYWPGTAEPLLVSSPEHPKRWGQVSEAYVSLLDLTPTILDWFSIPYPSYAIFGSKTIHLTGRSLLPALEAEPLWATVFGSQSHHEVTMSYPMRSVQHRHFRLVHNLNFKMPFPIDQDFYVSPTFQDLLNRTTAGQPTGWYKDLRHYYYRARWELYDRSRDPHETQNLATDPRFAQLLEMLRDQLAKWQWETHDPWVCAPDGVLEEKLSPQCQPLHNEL

[1] = target: T2, N-acetyl-glucosamine-6-sulfate sulfatase (6S) Form A (Homo sapiens, UniProt P15586); details: for Relative catalytic efficiency*: kcat./Km calculated relative to a value for GlcNAc6S = 1; for pH optimum: Table 6; for Ratio of catalytic efficiencies: form A/form B: form A over form B
T2 sequence (P15586 37-552): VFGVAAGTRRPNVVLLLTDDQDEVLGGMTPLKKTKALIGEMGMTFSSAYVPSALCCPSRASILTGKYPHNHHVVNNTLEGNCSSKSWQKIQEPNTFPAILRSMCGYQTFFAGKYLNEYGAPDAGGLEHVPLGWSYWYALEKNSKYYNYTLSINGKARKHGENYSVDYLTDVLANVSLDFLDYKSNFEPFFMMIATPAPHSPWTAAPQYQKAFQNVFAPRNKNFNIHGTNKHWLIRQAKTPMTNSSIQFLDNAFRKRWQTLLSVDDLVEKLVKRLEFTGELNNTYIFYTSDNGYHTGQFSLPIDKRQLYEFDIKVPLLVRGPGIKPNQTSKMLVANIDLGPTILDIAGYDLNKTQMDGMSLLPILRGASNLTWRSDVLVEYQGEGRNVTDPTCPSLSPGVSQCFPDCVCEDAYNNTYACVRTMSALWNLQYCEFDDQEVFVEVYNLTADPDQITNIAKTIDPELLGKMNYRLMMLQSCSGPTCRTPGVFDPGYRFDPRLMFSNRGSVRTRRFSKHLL

[2] = target: T3, N-acetyl-glucosamine-6-sulfate sulfatase (6S) Form B (Homo sapiens, UniProt P15586)
T3 sequence (P15586 37-552): T2 sequence (P15586 37-552)

iduronate-2-sulfatase = target: T4, iduronate-2-sulfatase (Homo sapiens, UniProt P22304)
T4 sequence (P22304 34-550): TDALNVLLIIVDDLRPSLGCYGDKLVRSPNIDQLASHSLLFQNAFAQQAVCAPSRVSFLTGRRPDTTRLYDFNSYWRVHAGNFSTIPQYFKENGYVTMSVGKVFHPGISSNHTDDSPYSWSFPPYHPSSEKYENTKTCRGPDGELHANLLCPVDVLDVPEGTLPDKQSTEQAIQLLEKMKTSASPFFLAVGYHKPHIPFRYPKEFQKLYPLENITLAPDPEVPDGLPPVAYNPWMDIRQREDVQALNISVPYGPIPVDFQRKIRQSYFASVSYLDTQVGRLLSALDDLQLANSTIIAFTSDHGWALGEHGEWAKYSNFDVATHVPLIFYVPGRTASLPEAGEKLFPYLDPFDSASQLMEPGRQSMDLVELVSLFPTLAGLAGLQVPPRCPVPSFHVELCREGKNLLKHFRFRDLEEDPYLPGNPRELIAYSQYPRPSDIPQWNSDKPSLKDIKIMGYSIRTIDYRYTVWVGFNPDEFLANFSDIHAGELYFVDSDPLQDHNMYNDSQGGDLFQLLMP

[3] = 37°, pH 5.6 (second line of the substrate)
[4] = 37°, pH: GlcNS-Ido 6.7, GlcNS-Ido2S 5.5, GlcNS-IdOA 5.6, GlcNS-IdoA-GlcNS-IdOA 5.6, GlcNS-IdoA2S-anM6S 3.6, GlcNS6S-Ido 4.2, GlcNS6S-Ido2S 3.8, GlcNS6S-IdOA 4.2
[5] = second line of the substrate, parentheses not explained
[6] = rows whose other values are marked †
[7] = values marked † (60° C. per footnote), pH: GlcNS 5.6, GalNS 5.6, GlcNS-IdOA 5.4
[8] = at the optimum pH of the substrate analog

| Molecule | Relative catalytic efficiency* (heparan-N-sulfatase; 37°, pH (optimum)) | Km (heparan-N-sulfatase; [4]) | kcat. (turnover number) (heparan-N-sulfatase; [4]) | pH optimum of the enzyme for the substrate (heparan-N-sulfatase) | kcat. (turnover number) ([1]; Form A) | Relative catalytic efficiency* ([1]; Form A) | Km ([1]; Form A, read-out: Km) | pH optimum [1] | also measured |
| --- | --- | --- | --- | --- | --- | --- | --- | --- | --- |
| O=C(O)[C@@H]1O[C@@H](O[C@H]2[C@H](O)[C@@H](CO)O[C@@H]2COS(=O)(=O)O)[C@H](OS(=O)(=O)O)[C@@H](O)[C@@H]1O[C@H]1O[C@H](CO)[C@@H](O)[C@H](O)[C@H]1NS(=O)(=O)O [GlcNS-IdoA2S-anM6S, O-α-2-sulphaminoglucosamine)-(1-4) O-L-(α-iduronic-acid 2-sulphate)-(1-4)-O-D-(2,5)-anhydro-mannitol 6-sulphate] | 67193 | 3.8 µM | 186 mol/min per mol of enzyme | – | – | – | – | – | Km (heparan-N-sulfatase; [3]): 5.3 µM; kcat. (turnover number) (heparan-N-sulfatase; [3]): 117 mol/min per mol of enzyme; Relative catalytic efficiency* (heparan-N-sulfatase; [3]): 30237 |
| O=C[C@H](O)[C@@H](O)[C@H](O[C@H]1O[C@H](CO)[C@@H](O)[C@H](O)[C@H]1NS(=O)(=O)O)[C@@H](O)CO [GlcNS-Ido, O-(α-2-sulphaminoglucosamine)-(1-4)-L-idose)] | 7.40 | 7.7 µM | 0.0414 mol/min per mol of enzyme | 6.7 | – | – | – | – | – |
| CC(=O)N[C@H]1[C@@H](O[C@@H]([C@H](O)[C@@H](O)CO)[C@@H](O)C(=O)O)O[C@H](COS(=O)(=O)O)[C@@H](O)[C@@H]1O [GlcNAc6S-IdOA, O-(α-N-acetylglucosamine 6-sulphate)-(1-3)-L-idonic acid] | – | – | – | – | 7.90 mol/min per mol of enzyme | 31 | 11.1 µM | 5.0 | pH optimum of 6S activity [1]: 5.0; Relative catalytic efficiency*, value in parentheses ([1]; Form A, relative to GlcNAc6S = 1, parentheses not explained): (29); kcat. (turnover number), value in parentheses ([1]; Form A, second line of the substrate, parentheses not explained): (6.79) mol/min per mol of enzyme; Km ([1]; Form A, second line of the substrate, parentheses not explained, read-out: Km, value in parentheses): 10 µM; Ratio of catalytic efficiencies: form A/form B [1]: 2.4; Ratio of catalytic efficiencies: form A/form B, value in parentheses [1, 5]: (2.8); pH optimum, value in parentheses [1, 5]: (5.0); Km ([2]; read-out: Km): 14.3 µM; Km ([2]; second line of the substrate, parentheses not explained, read-out: Km, value in parentheses): 13.2 µM |
| O=C[C@H](O)[C@@H](O)[C@H](O[C@H]1O[C@H](CO)[C@@H](O)[C@H](O)[C@H]1NS(=O)(=O)O)[C@@H](O)C(=O)O [GlcNS-IdOA, O-(α-2-sulphaminoglucosamine)-(1-4)-O-L-iduronic acid] | 359 | 35 µM | 9.19 mol/min per mol of enzyme | 5.5 | – | – | – | – | Relative catalytic efficiency* (heparan-N-sulfatase; [6]): 1477; Km (heparan-N-sulfatase; [7]): 40.8 µM; kcat. (turnover number) (heparan-N-sulfatase; [7]): 44† mol/min per mol of enzyme |
| O=C(O)[C@H](O)[C@@H](O[C@H]1O[C@H](CO)[C@@H](O[C@@H]2O[C@@H](C(=O)O)[C@@H](O[C@H]3O[C@H](CO)[C@@H](O)[C@H](O)[C@H]3NS(=O)(=O)O)[C@H](O)[C@H]2O)[C@H](O)[C@H]1NS(=O)(=O)O)[C@H](O)[C@@H](O)CO [GlcNS-IdoA-GlcNS-IdOA, O-(α-2-sulphaminoglucosamine)-(1-4)-L-O-(α-iduronic acid)-(1-4)-O-D-(α-2-sulphaminoglucosamine)-(1-3)-L-idonic acid] | 6927 | 10.3 µM | 52 mol/min per mol of enzyme | 5.5 | – | – | – | – | – |
| O=C[C@H](O)[C@@H](O)[C@H](O)[C@H](O)COS(=O)(=O)O [Glc6S, glucose 6-sulfate] | – | – | – | – | 0.585 mol/min per mol of enzyme | 0.4 | 62.5 µM | 5.7 | Kcat [1]: 0.585 mol/min/mol enzyme; pH optimum of 6S activity [1]: 5.7; Ratio of catalytic efficiencies: form A/form B [1]: 1.3; Km ([1]; read-out: Km): 62.5 µM; Km ([2]; read-out: Km): 62.5 µM |
| O=S(=O)(O)N[C@H]1[C@@H](O[C@H]2[C@H](O)[C@@H](OS(=O)(=O)O)C(O)O[C@H]2CO)O[C@H](CO)[C@@H](O)[C@@H]1O (stereo partly drawn) [GlcNS-Ido2S, O-(α-2-sulphaminoglucosamine)-(1-4)-L-6-idose 2-sulphate] | 36 | 4.1 µM | 0.11 mol/min per mol of enzyme | 5.5 | – | – | – | – | – |
| O=C[C@H](OS(=O)(=O)O)[C@@H](O)[C@H](O[C@H]1O[C@H](COS(=O)(=O)O)[C@@H](O)[C@H](O)[C@H]1NS(=O)(=O)O)[C@@H](O)CO [GlcNS6S-Ido2S, O-(α-2-sulphaminoglucosamine 6-sulphate)-(1-4)-L-idose 2-sulphate] | 388 | 4.1 µM | 3.333 mol/min per mol of enzyme | – | 0.201 mol/min per mol of enzyme | 3.8 | 2.3 µM | 4.2 | – |
| O=S(=O)([O-])[O-].[Na+].[Na+] [sodium sulfate] | – | – | – | – | – | – | – | – | effect of salt on activity of the enzyme against the substrates (iduronate-2-sulfatase): inhibitory |
| 2-sulphoamino-glucosamine [GlcNS] | – | – | – | 5.6 | – | – | – | – | kcat. (turnover number), value in parentheses (heparan-N-sulfatase; in parentheses under the † value, parentheses not explained, pH 5.6): (0.0005) mol/min per mol of enzyme; Relative catalytic efficiency* (heparan-N-sulfatase; [6]): 1.00; Km (heparan-N-sulfatase; [7]): 0.7 µM; kcat. (turnover number) (heparan-N-sulfatase; [7]): 0.0021† mol/min per mol of enzyme |
| L-O-(α-iduronic acid 2 sulphate)-D-β-α-glucosamine 6-sulphate)-(1-4)-L-O-(α-iduronic acid 2-sulphate)-(1-4)-D-O-anhydro-mannitol 6-sulphate [IdoA2S-GlcNH6S-IdoA2S-anM6S] | – | – | – | – | – | – | – | – | pH range of activity (iduronate-2-sulfatase): 4.2-6.0; pH optimum (iduronate-2-sulfatase; Table 4, cells marked * (not optimum pH) left out): 5.4; activity as % of maximal activity (iduronate-2-sulfatase; at pH 6.3): ~12%; Km (iduronate-2-sulfatase; [8]): 2.5 µM; kcat. (turnover no.) (iduronate-2-sulfatase; [8]): 1925 mol/min per mol of enzyme; Relative catalytic efficiency (iduronate-2-sulfatase; at the optimum pH of the substrate analog, IdoA2S-anM = 1.0): 91.7; pH of maximal activity (iduronate-2-sulfatase; text b65, highly sulfated tetrasaccharide substrates): 5.1 |
| CC(=O)N[C@H]1C(O)O[C@H](COS(=O)(=O)O)[C@@H](O)[C@@H]1O (stereo partly shown) [GlcNAc6S, N-acetyl-glucosamine 6-sulfate] | – | – | – | – | 0.165 mol/min per mol of enzyme | 1.0 | 7.1 µM | 5.7 | pH optimum of 6S activity [1]: 5.7; decrease in the Km ([1]; addition of a 2-acetamido group to Glc6S): 6-9 fold; Ratio of catalytic efficiencies: form A/form B [1]: 2.1; effect on Kcat ([1]; relative to the parent substrate (Glc6S for GlcNAc6S; GlcNAc6S for GlcNAc6S-Ido)): decrease in Kcat; Km ([2]; read-out: Km): 10 µM |
